# Assay results published in ChEMBL document CHEMBL1201862, “PubChem BioAssay data set” (2004).
# Active and inactive are the calls of the source.
# How the values were obtained:
# [1] = target: T1, Kappa-type opioid receptor (Homo sapiens, UniProt P41145); format: functional
# [2] = target: T2, Delta-type opioid receptor (Homo sapiens, UniProt P41143); assay: HTS Image-Based Screen for Agonists of the DOR Receptor. [Related pubchem assays (depositor defined):AID1777, AID1786, AID2133]; format: functional
# Mu-type opioid receptor [3] = target: T3, Mu-type opioid receptor (Homo sapiens, UniProt P35372); assay: HTS Image-Based Screen for Agonists of the MOR Receptor. [Related pubchem assays (depositor defined):AID1777, AID1785, AID1786, AID2133]; format: functional
# [4] = target: T2, Delta-type opioid receptor; assay: HTS Image-Based Screen for Antagonists of the DOR Receptor. [Related pubchem assays (depositor defined):AID1777, AID1785, AID1786, AID2133]; format: functional
# Beta-galactosidase = Beta-galactosidase (Escherichia coli, UniProt Q8VNN2); format: functional
# [5] = target: T1, Kappa-type opioid receptor; format: functional; remark: listed apart in the source
# [6] = target: T1, Kappa-type opioid receptor; assay: SAR analysis of small molecule agonists of the kappa opioid receptor via a luminescent beta-arrestin assay - Set 3. [Related pubchem assays (depositor defined):AID1777, AID1785, AID1786, AID1966, AID2133, AID2136, AID2284, AID2500]; format: functional
# Mu-type opioid receptor [7] = target: T3, Mu-type opioid receptor; assay: mu opioid receptor activators, image-based, SAR follow-up (AID 2352); format: functional
# [8] = target: T2, Delta-type opioid receptor; assay: delta opioid receptor blockers – image-based, SAR follow-up (AID 2357); format: functional
# [9] = target: T1, Kappa-type opioid receptor; assay: SAR analysis of small molecule agonists of the kappa opioid receptor via a luminescent beta-arrestin assay. [Related pubchem assays (depositor defined):AID1777, AID1786, AID1966, AID2133, AID2136, AID2348, AID2352, AID2357, AID2359, AID2370, AID2420, AID2478, AID2491, AID2492, AID2493, AID2497, AID2498, AID2500, AID449737, AID488822, AID488842]; format: functional
# [10] = target: T1, Kappa-type opioid receptor; assay: kappa opioid receptor activation potency – imaging, image-based, SAR follow-up (AID 2359); format: functional
# Mu-type opioid receptor [11] = target: T3, Mu-type opioid receptor; assay: mu opioid receptor blockers – image-based, SAR follow-up (AID 2420); format: functional;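 note: compounds added before stimulation of receptor with agonist DAMGO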
# [12] = target: T1, Kappa-type opioid receptor; assay: kappa opioid receptor blockers, image-based, SAR follow-up (AID 2348); format: functional
# [13] = target: T2, Delta-type opioid receptor; assay: DOR agonists, SAR follow-up, image-based (AID 2370); format: functional
# [14] = target: Microphthalmia-associated transcription factor (Homo sapiens, UniProt O75030); assay: reducers of TRPM1 reporter luminescence, concentration series – cell-based, SK-MEL-5, cherry-picked, set 3, MITF inhibitor project, dose response (AID 493073); format: functional;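 note: SK-MEL-5 melanoma cells with luciferase driven by the MITF target TRPM1 promoter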
# Vero = assay: cells; format: functional; conditions: Chlorocebus sabaeus
# [15] = target: T4, Carboxy-terminal domain RNA polymerase II polypeptide A small phosphatase 1 (Homo sapiens, UniProt Q9GZU7); assay: CTDSP1 inhibitors, concentration-response, biochemical, absorbance readout, ultra-high-throughput screen actives (AID 540297); format: functional
# T4 sequence (Q9GZU7 whole entry): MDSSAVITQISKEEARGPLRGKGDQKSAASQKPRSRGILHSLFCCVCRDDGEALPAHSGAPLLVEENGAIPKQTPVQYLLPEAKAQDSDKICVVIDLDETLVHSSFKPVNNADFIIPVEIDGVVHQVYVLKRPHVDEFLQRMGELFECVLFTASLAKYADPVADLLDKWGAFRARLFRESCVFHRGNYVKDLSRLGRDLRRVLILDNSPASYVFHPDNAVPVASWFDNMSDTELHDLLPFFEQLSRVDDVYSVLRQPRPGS
# [16] = target: T5, Tyrosine-protein phosphatase non-receptor type 22 (Homo sapiens, UniProt Q9Y2R2); assay: lymphoid phosphatase LYP inhibitors – biochemical, selectivity assay for STEP inhibitor project, dose response (AID 624241); format: functional
# T5 sequence (Q9Y2R2 whole entry): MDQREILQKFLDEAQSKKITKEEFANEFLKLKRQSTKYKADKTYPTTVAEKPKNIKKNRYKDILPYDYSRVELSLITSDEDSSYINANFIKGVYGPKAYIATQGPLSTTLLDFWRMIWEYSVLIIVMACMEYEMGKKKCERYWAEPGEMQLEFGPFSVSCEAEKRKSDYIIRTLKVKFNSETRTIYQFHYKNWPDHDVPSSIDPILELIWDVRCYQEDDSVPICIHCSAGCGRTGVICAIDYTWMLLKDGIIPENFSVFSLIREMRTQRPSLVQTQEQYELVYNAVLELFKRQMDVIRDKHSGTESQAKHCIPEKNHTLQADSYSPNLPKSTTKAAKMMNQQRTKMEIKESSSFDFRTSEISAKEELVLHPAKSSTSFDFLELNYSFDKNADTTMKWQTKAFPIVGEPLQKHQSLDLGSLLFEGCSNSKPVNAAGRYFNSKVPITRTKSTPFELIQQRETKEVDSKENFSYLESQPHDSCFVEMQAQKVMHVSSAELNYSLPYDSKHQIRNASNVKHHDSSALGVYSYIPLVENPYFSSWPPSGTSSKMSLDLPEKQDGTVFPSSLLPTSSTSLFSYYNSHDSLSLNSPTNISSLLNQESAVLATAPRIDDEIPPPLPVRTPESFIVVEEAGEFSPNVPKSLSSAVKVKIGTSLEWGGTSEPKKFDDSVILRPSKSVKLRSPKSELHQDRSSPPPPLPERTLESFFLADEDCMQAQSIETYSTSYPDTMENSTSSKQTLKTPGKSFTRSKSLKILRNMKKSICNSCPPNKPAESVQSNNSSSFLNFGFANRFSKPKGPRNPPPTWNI
# [17] = target: T6, Tyrosine-protein phosphatase non-receptor type 7 (Homo sapiens, UniProt P35236); format: functional
# T6 sequence (P35236 whole entry): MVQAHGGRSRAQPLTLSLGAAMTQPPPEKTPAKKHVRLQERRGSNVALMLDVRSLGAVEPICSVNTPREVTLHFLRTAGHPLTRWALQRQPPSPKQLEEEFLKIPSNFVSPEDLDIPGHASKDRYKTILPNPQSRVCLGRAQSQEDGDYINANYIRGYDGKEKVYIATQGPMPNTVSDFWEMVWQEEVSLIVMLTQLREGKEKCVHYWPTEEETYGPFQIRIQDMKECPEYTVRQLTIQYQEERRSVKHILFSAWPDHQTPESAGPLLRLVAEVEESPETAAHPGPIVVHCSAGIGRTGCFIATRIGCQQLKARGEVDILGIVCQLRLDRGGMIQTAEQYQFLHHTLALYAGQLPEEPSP
# [18] = target: T5, Tyrosine-protein phosphatase non-receptor type 22; assay: PTPN22 enzyme inhibitors – biochemical, fluorescence, LYP catalytic domain, selectivity assay for LMPTP inhibitor project, dose response (AID 652006); format: functional; conditions: read-out: IC50_Mean
# [19] = target: T7, Tyrosine-protein phosphatase non-receptor type 11 (Homo sapiens, UniProt Q06124); assay: PTPN11 enzyme inhibitors – biochemical, selectivity assay for STEP inhibitor project, dose response (AID 602367); format: functional; conditions: read-out: IC50_Mean
# T7 sequence (Q06124 whole entry): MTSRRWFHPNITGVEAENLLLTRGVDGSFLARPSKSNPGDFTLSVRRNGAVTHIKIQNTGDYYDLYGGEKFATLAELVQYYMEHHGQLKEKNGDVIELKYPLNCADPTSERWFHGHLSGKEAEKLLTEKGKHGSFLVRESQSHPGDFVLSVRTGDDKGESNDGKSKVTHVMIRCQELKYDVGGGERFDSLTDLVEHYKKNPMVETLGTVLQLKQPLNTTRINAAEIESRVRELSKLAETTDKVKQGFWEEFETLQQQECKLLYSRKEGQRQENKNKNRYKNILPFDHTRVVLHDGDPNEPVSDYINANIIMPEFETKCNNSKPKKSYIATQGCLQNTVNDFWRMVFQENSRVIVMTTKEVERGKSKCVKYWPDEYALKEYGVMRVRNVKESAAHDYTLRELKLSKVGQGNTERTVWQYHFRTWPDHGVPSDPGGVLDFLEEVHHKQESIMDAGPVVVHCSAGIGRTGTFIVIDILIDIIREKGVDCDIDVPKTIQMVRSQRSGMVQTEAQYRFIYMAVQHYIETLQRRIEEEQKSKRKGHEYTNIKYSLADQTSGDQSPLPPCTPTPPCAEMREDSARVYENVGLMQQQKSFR
# [20] = target: T5, Tyrosine-protein phosphatase non-receptor type 22; format: functional
# [21] = target: T8, Tyrosine-protein phosphatase non-receptor type 5 (Homo sapiens, UniProt P54829); assay: PTPN5 enzyme inhibition – biochemical, fluorescence intensity, uHTS hits, confirmation (AID 602372); format: functional; conditions: read-out: IC50_Mean
# T8 sequence (P54829 whole entry): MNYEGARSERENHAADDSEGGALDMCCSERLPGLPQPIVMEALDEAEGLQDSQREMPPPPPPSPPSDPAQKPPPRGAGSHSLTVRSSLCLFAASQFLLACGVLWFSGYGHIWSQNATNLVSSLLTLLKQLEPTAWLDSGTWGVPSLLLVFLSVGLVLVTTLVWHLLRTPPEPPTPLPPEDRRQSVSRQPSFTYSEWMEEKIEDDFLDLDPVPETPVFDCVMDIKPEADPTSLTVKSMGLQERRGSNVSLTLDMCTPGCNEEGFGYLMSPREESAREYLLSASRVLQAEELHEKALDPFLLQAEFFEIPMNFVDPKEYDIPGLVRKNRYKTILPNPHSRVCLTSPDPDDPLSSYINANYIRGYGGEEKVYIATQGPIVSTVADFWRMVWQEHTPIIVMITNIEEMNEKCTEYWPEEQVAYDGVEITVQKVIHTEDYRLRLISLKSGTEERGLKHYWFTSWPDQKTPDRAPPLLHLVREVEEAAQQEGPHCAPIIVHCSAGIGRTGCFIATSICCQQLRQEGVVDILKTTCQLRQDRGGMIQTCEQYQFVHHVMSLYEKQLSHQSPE
# [22] = target: Dual specificity protein phosphatase 3 (Homo sapiens, UniProt P51452); assay: VHR phosphatase inhibition, dose response, selectivity assay for STEP inhibitor project, biochemical (AID 602374); format: functional; conditions: read-out: IC50_Mean
# [23] = target: T9, Low molecular weight phosphotyrosine protein phosphatase (Homo sapiens, UniProt P24666); format: functional; conditions: read-out: IC50_Mean
# T9 sequence (P24666 whole entry): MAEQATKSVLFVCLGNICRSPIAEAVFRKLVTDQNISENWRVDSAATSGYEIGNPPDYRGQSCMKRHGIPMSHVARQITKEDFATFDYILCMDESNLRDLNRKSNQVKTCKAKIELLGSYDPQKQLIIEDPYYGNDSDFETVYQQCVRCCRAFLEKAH
# [24] = target: T5, Tyrosine-protein phosphatase non-receptor type 22; format: functional; remark: listed apart in the source
# [25] = target: T9, Low molecular weight phosphotyrosine protein phosphatase; format: functional; conditions: read-out: IC50_Mean; remark: listed apart in the source
# [26] = general cell-killing toxicity readout – plate reader, dry powder samples, cytotoxicity control for PAX8 inhibitor project, dose response (AID 743021); format: functional, cell-based
# Paired box protein Pax-8 = Paired box protein Pax-8 (Homo sapiens, UniProt Q06710); assay: PAX8 transcriptional activity inhibition in RMG-I – RMG-I cells, luciferase, cherry-pick, dose response (AID 687027); format: functional, cell-based;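 note: luciferase reporter driven by Pax8 target thyroperoxidase promoter measured by SteadyGlo luminescence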
# Melanocortin receptor 4 = Melanocortin receptor 4 (Homo sapiens, UniProt P32245); format: functional, cell-based;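 note: Cell-based assay with luminescence read-out, confirmatory dose-response testing for agonist activity of biased ligands at MC4R; human U2OS cells with tagged receptor and beta-arrestin; potency of agonists that increase receptor coupling to beta-arrestin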
# [27] = target: G-protein coupled receptor 35 (Homo sapiens, UniProt Q9HC97); assay: SAR Analysis for the identification of Selective Antagonists of ERK1/2 Activity in GPR35-Overexpressing U2OS Cells. [Related pubchem assays: 2079, 2058 ]; format: functional, cell-based
# [28] = target: G-protein coupled receptor 55 (Homo sapiens, UniProt Q9Y2T6); assay: blockers of GPR55 signalling, imaged – imaging, image-based, counter-screen for GPR35 antagonist project, SAR follow-up (AID 2397); format: functional
# G-protein coupled receptor 55, sequence (Q9Y2T6 whole entry): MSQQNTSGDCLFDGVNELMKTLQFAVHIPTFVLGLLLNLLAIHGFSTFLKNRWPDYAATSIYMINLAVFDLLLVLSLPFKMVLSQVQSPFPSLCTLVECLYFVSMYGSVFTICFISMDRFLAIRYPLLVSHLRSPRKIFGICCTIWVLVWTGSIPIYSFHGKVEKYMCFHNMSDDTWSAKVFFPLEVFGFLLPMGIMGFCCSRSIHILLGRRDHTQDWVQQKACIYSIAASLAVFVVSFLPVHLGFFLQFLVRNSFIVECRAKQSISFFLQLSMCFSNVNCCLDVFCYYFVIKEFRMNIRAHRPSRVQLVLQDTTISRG
# T1 sequence (P41145 whole entry): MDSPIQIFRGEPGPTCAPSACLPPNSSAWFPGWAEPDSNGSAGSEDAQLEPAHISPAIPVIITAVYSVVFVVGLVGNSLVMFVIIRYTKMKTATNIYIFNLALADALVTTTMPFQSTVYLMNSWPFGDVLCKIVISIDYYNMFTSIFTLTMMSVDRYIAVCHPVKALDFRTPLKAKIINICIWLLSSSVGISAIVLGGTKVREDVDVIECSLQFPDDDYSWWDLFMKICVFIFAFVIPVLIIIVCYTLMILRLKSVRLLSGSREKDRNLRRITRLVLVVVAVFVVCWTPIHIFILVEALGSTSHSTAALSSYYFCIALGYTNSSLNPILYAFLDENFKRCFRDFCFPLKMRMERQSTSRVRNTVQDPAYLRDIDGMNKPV
# T2 sequence (P41143 whole entry): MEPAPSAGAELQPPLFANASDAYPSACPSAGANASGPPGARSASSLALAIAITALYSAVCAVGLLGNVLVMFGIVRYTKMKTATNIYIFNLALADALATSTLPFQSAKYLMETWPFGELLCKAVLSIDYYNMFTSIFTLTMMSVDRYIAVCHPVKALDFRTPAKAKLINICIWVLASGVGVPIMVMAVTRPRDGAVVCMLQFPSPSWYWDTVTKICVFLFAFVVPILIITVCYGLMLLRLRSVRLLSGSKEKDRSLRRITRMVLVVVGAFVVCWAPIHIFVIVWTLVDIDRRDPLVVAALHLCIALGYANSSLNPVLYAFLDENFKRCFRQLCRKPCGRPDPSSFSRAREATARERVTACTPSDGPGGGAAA
# T3 sequence (P35372 whole entry): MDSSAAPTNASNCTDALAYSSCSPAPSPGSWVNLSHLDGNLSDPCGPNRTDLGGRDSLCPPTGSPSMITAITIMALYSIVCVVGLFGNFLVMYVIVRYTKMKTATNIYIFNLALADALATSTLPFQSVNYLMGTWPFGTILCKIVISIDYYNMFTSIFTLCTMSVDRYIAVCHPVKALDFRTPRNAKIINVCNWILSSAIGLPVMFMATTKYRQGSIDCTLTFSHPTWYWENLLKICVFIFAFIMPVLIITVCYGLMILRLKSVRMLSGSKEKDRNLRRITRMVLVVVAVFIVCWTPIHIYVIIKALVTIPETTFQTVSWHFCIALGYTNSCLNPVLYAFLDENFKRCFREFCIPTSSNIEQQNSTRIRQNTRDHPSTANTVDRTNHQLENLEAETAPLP
# Microphthalmia-associated transcription factor, sequence (O75030 whole entry): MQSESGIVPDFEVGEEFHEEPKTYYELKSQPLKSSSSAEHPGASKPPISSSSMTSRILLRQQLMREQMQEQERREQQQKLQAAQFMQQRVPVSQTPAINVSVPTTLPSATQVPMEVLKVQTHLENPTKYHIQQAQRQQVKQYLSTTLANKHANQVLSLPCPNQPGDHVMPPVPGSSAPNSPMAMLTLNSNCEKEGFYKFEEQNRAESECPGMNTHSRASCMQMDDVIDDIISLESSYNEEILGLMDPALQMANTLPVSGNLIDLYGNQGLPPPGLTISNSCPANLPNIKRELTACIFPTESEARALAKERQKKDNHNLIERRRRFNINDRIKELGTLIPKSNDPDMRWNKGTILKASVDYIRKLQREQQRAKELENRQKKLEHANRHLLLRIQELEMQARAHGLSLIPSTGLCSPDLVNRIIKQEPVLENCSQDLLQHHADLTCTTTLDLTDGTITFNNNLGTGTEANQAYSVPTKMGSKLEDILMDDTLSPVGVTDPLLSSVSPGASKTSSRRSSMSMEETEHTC
# Beta-galactosidase, sequence (Q8VNN2 whole entry): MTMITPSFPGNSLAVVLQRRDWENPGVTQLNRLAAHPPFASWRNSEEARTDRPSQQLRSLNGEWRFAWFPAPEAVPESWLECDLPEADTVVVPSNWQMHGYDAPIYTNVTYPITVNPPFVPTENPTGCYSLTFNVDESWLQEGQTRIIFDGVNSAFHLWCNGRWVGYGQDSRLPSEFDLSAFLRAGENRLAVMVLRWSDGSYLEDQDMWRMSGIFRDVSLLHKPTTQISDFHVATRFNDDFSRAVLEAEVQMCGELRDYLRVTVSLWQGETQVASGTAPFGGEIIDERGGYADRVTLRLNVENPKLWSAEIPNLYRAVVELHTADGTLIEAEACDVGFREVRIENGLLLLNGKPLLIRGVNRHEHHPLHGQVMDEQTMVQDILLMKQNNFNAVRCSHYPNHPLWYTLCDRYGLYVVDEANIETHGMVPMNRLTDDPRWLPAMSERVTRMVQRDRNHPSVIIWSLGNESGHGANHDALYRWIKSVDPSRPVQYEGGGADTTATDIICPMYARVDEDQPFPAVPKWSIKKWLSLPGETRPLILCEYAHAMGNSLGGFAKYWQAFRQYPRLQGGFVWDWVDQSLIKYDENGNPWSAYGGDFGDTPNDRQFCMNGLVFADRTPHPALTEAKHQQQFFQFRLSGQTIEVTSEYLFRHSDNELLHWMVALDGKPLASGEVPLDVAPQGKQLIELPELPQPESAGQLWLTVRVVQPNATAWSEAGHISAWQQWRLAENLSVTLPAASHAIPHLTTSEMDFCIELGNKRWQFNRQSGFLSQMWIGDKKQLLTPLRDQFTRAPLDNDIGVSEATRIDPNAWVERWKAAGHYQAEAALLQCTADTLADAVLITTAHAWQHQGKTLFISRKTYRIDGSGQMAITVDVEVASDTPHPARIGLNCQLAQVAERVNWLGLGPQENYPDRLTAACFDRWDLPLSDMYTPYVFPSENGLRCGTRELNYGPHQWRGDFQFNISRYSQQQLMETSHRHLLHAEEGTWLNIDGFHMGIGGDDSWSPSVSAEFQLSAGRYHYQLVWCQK
# Melanocortin receptor 4, sequence (P32245 whole entry): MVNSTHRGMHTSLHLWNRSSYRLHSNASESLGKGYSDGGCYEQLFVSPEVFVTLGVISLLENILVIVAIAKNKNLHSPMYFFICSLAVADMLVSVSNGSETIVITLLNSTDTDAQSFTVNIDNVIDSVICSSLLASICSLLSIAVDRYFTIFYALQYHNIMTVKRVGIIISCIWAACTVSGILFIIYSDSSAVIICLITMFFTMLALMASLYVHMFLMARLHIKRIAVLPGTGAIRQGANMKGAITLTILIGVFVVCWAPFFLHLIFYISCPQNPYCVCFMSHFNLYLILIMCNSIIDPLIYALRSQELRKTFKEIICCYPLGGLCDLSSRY
# G-protein coupled receptor 35, sequence (Q9HC97 whole entry): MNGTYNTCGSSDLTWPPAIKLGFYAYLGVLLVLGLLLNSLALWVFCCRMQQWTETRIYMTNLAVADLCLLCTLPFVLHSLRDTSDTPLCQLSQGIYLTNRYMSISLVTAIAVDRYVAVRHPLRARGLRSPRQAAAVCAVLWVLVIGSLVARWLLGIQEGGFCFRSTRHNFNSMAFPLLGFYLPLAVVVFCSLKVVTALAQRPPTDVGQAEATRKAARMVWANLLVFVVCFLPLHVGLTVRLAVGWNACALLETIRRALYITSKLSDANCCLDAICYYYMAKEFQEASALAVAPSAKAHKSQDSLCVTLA
# Paired box protein Pax-8, sequence (Q06710 whole entry): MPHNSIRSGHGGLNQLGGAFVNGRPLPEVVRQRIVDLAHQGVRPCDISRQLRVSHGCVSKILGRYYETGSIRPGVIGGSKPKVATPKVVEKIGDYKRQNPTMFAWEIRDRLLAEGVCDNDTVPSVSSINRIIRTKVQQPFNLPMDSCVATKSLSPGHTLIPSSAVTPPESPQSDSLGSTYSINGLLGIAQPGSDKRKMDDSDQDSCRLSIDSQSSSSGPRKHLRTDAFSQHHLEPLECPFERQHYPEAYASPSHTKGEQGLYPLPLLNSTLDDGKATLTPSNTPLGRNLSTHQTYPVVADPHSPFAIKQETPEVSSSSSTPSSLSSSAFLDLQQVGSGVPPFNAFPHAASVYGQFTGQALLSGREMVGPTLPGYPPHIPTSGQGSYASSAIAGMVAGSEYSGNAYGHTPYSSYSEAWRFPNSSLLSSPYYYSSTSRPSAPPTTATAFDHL
# Dual specificity protein phosphatase 3, sequence (P51452 whole entry): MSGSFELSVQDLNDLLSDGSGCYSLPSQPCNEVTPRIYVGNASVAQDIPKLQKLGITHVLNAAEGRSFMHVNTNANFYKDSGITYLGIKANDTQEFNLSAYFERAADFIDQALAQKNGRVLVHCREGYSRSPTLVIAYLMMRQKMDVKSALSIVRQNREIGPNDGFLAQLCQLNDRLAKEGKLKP
smiles,measurement,setting,value
COc1cc(OC)cc(-c2nnc(NC(=O)c3ccc4c(c3)OCCO4)o2)c1,IC50,[1],> 32 µM
same,EC50,[2],> 32 µM (inactive)
same,EC50,Mu-type opioid receptor [3],> 32 µM (inactive)
same,IC50,[4],> 32 µM (inactive)
same,EC50,Beta-galactosidase,> 31.5 µM (inactive)
same,IC50,[5],13.3 µM (active)
COc1ccc(Cn2c(SCc3ccc(Cl)c(Cl)c3)nnc2-c2ccccn2)cc1,EC50,[6],17.4 µM (inactive)
COc1ccc(C(=O)CSc2nnc(-c3ccccn3)n2Cc2ccco2)cc1,EC50,Mu-type opioid receptor [7],> 32 µM (inactive)
same,IC50,[8],> 32 µM (inactive)
same,EC50,[9],> 10 µM (inactive)
same,EC50,[10],> 32 µM (inactive)
same,IC50,Mu-type opioid receptor [11],> 32 µM (inactive)
same,IC50,[12],> 32 µM (inactive)
same,EC50,[13],> 32 µM (inactive)
CC(C)N=C(NS(=O)(=O)c1ccccc1)C(Cl)(Cl)Cl,AC50,[14],6.76 µM (active)
same,CC50,Vero,11.5 µM (active)
O=C(COc1ccc(/C=N/NC(=O)c2ccc(O)cc2)cc1)Nc1cccc([N+](=O)[O-])c1,IC50,[15],2.98 µM (active)
same,IC50,[16],48.9 µM (inactive)
same,IC50,[17],49.1 µM (active)
same,IC50,[18],11.6 µM (active)
same,IC50,[19],2.41 µM (active)
same,IC50,[20],37.6 µM (active)
same,IC50,[21],8.06 µM (active)
same,IC50,[22],3.06 µM (active)
same,IC50,[23],11.2 µM (active)
same,IC50,[24],64.7 µM (active)
same,IC50,[25],15.8 µM (active)
Clc1ccc(Cn2ncc3c(N4CCN(c5ccccc5)CC4)ncnc32)cc1,AC50,[26],33.9 µM (active)
same,AC50,Paired box protein Pax-8,8.65 µM (active)
same,EC50,Melanocortin receptor 4,> 89.1 µM (inactive)
same,IC50,[27],> 32 µM (not active)
same,IC50,[28],29.3 µM (inactive)
